The values below are quoted from earlier work in US20050020589A1, “Sustained-release tablet composition comprising a dopamine receptor agonist” (Pfizer Inc., priority 2003, published 2005).

Regarding “(R)-5,6-dihydro-5-(methylarnino)-4H-imidazo[4,5-ij]-quinolin-2(1H)-one (Z)-2-butenedioate (1:1) [maleate salt of sumanirole]”, the Solubility result was “highly soluble”.
